Here are results for 17 compounds from ChEMBL document CHEMBL1137981, “Identification and specificity studies of small-molecule ligands for SH3 protein domains” (J Med Chem, 2004).

Data set [1] has as its target SH2/SH3 adapter protein NCK1 (Homo sapiens, UniProt P16333). Nature of the data set: Displacement of PRP-1 peptide from human Nck […] SH3 domain by fluorescence polarization.
In data set [2] the target is T1, Tyrosine-protein kinase TEC (Mus musculus, UniProt Q8CFK4).
T1 sequence (Q8CFK4 whole entry): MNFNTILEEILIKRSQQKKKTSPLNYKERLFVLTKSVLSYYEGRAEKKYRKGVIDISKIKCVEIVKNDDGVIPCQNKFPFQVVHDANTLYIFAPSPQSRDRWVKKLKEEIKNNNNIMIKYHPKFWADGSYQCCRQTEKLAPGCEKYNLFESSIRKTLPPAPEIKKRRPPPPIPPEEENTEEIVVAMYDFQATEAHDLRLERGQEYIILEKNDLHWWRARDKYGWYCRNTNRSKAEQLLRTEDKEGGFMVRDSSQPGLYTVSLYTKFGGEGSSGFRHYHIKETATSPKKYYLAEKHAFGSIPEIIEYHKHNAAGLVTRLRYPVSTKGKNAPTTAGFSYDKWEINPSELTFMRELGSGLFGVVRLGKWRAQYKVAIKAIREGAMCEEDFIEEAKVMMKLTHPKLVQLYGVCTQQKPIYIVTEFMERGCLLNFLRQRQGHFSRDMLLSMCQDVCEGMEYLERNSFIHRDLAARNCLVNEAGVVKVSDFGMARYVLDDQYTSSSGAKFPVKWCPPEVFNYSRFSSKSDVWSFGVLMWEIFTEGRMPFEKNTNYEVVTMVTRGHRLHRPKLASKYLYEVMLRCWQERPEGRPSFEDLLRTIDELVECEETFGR
Nature of the data set: Displacement of PRP-1 peptide from mouse Tec kinase SH3 domain by fluorescence polarization.

Data set [3] deals with T1, Tyrosine-protein kinase TEC. Nature of the data set: Binding affinity to mouse Tec kinase SH3 domain by NMR chemical shift perturbation.
A short description of data set [4]: Ionization constant (pKa) for the compound. In kind it is physicochemical.
Data set [5] has as its target T1, Tyrosine-protein kinase TEC. Nature of the data set: Binding affinity to mouse Tec kinase SH3 domain by NMR chemical shift perturbation; No binding.
Data set [6] has the same target. Described as above. The source holds these as a separate data set.
Data set [7] has the same target. Nature of the data set: Displacement of PRP-1 peptide from mouse Tec kinase SH3 domain by fluorescence polarization; No competition. In general terms: Polarisation of emitted light reports the rotation of a fluorescent probe.

On to `Nc1ccc2cc(C3OCCO3)ccc2n1`, for which the EC50 (usually the midpoint of the concentration-response curve) was 300 µM in data set [1] and 34 µM in data set [2]. Also, the equilibrium dissociation constant (Kd) – broadly, the equilibrium constant for the complex coming apart – in data set [3] came to 40 µM. For `Cc1ccc2nc(N)ccc2c1`, the EC50 in data set [1] was 90 µM; in data set [2], 75 µM. Also, the Kd in data set [3] amounted to 61 µM. For `Nc1ccc2cc(F)ccc2n1`, a half-maximal effect in data set [2] (EC50) was put at 150 µM.

`Nc1ccc2cc(Br)ccc2n1` returned an EC50 in data set [2] of 58 µM. In the case of `COc1ccc2nc(N)ccc2c1`, in data set [2], the EC50 came to 63 µM. `Nc1ncc2ccccc2n1`: the pKa (as a rule, the pH at which an ionisable group is half protonated) in data set [4] stood at 4.82. In the case of `CC1(C)COC(c2ccc3nc(N)ccc3c2)OC1`, the Kd in data set [3] amounted to 22 µM.

For the compound `Nc1ccc2cc(Cl)ccc2n1`, in data set [2], a half-maximal effect (EC50) was put at 76 µM. Regarding `CNc1ccc2ccccc2n1`, the Kd in data set [3] was 380 µM. Turning to `O=c1ccc2ccccc2[nH]1`, the equilibrium dissociation constant (Kd) entry in data set [5] is reported as “Not Active”. For `Nc1ccccn1` [2-AMINOPYRIDINE], in data set [3], the Kd was greater than 4000 µM. Take `Nc1ccc2cc(C3OCCCO3)ccc2n1`: the values for the EC50 in data set [1] and in data set [2] were greater than 500 µM and 26 µM, respectively. In addition, the Kd in data set [3] stood at 52 µM. `Nc1ncccn1`: the pKa in data set [4] is 3.54. Further, the equilibrium dissociation constant (Kd) result in data set [6] is recorded as “Not Active”. Take `Nc1ccc2cccc(O)c2n1`: the half-maximal effective concentration (EC50) result in data set [7] is on record as “Not Active”.

As to `Nc1ccc2ccccc2c1` [NAPHTHYLAMINE], the Kd entry in data set [5] is given as “Not Active”. On the same count and under the same terms, the entry for `CC(=O)Nc1ccc2ccccc2n1` is “Not Active”; for `c1ccc2ncccc2c1` [QUINOLINE] it is “Not Active”.
